Columns and labels:
Assay in all cases: relative viability (nuclei count vs DMSO), 5 days (fraction); higher = more cells survive
Dasatinib + Pictilisib = compound: Cc1nc(Nc2ncc(C(=O)Nc3c(C)cccc3Cl)s2)cc(N2CCN(CCO)CC2)n1 [Dasatinib] + CS(=O)(=O)N1CCN(Cc2cc3nc(-c4cccc5[nH]ncc45)nc(N4CCOCC4)c3s2)CC1 [Pictilisib] (partner 1 µM)
How it was run: (§1)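 Nuclei were stained with Hoechst during a one-step fixation (final 0.05% Triton X-100, 1% formaldehyde, 1 ug/ml Hoechst) carried out 5 days after dosing, then counted on 4× images. The cells, lung cancer lines in 1536-well plates, had been dosed by pin tool the day after seeding with one drug alone or a fixed anchor-drug dose plus five library-drug doses (not always all listed) in √10 steps. Relative viability is the nuclei count in treated wells divided by that in vehicle wells, and each value is the median of duplicate plates.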

ALW-II-49-7 + Navitoclax = compound: Cc1ccc(C(=O)Nc2cccc(C(F)(F)F)c2)cc1Nc1cncc(C(N)=O)c1 [ALW-II-49-7] + CC1(C)CCC(c2ccc(Cl)cc2)=C(CN2CCN(c3ccc(C(=O)NS(=O)(=O)c4ccc(N[C@H](CCN5CCOCC5)CSc5ccccc5)c(S(=O)(=O)C(F)(F)F)c4)cc3)CC2)C1 [Navitoclax] (partner 0.5 µM)
How it was run: as §1

XMD13-2 + Trametinib = compound: C1CC1C(=O)NC2=NNC3=C2C=CC(=C3)C4=CC(=CC=C4)C(=O)NC5CC5 [XMD13-2] + CC(=O)Nc1cccc(-n2c(=O)n(C3CC3)c(=O)c3c(Nc4ccc(I)cc4F)n(C)c(=O)c(C)c32)c1 [Trametinib] (partner 0.02 µM)
How it was run: as §1

Dasatinib + Linsitinib = compound: Cc1nc(Nc2ncc(C(=O)Nc3c(C)cccc3Cl)s2)cc(N2CCN(CCO)CC2)n1 [Dasatinib] + C[C@]1(O)C[C@@H](c2nc(-c3ccc4ccc(-c5ccccc5)nc4c3)c3c(N)nccn32)C1 [Linsitinib] (partner 1 µM)
How it was run: as §1

Cell Line | relative viability (Dasatinib + Pictilisib; first compound 0.005 µM) | relative viability (Dasatinib + Pictilisib; first compound 0.01581 µM) | relative viability (Dasatinib + Pictilisib; first compound 0.05 µM) | relative viability (Dasatinib + Pictilisib; first compound 0.1581 µM) | relative viability (Dasatinib + Pictilisib; first compound 0.5 µM) | relative viability (ALW-II-49-7 + Navitoclax; first compound 0.08 µM) | relative viability (ALW-II-49-7 + Navitoclax; first compound 0.253 µM) | relative viability (ALW-II-49-7 + Navitoclax; first compound 0.8 µM) | relative viability (ALW-II-49-7 + Navitoclax; first compound 2.53 µM) | relative viability (ALW-II-49-7 + Navitoclax; first compound 8 µM) | relative viability (XMD13-2 + Trametinib; first compound 0.05 µM) | relative viability (XMD13-2 + Trametinib; first compound 0.1581 µM) | relative viability (XMD13-2 + Trametinib; first compound 0.5 µM) | relative viability (XMD13-2 + Trametinib; first compound 1.581 µM) | relative viability (XMD13-2 + Trametinib; first compound 5 µM) | relative viability (Dasatinib + Linsitinib; first compound 0.005 µM) | relative viability (Dasatinib + Linsitinib; first compound 0.01581 µM) | relative viability (Dasatinib + Linsitinib; first compound 0.05 µM) | relative viability (Dasatinib + Linsitinib; first compound 0.1581 µM) | relative viability (Dasatinib + Linsitinib; first compound 0.5 µM)
HCC-827 | 1.23 | 0.907 | 0.84 | 0.429 | 0.126 | 0.981 | 1.05 | 1.08 | 1.01 | 0.987 | 0.611 | 0.502 | 0.528 | 0.49 | 0.473 | 1.03 | 1.05 | 0.971 | 0.581 | 0.102
HOP-62 | 0.636 | 0.581 | 0.565 | 0.223 | 0.143 | 1.03 | 0.866 | 1.02 | 0.485 | 0.67 | 0.397 | 0.4 | 0.443 | 0.426 | 0.407 | 1.07 | 1.07 | 0.85 | 0.682 | 0.297
LC-2-ad | 0.397 | 0.346 | 0.237 | 0.128 | 0.0796 | 0.445 | 0.463 | 0.37 | 0.341 | 0.42 | 0.934 | 0.938 | 0.961 | 0.936 | 0.93 | 0.685 | 0.702 | 0.6 | 0.26 | 0.176
LCLC-97TM1 | 0.206 | 0.206 | 0.192 | 0.18 | 0.12 | 0.628 | 0.334 | 0.57 | 0.131 | 0.431 | 0.225 | 0.198 | 0.217 | 0.17 | 0.179 | 0.17 | 0.203 | 0.2 | 0.163 | 0.129
LK-2 | 0.653 | 0.36 | 0.317 | 0.2 | 0.21 | 0.887 | 0.802 | 0.945 | – | 0.745 | 1.1 | 0.785 | 0.779 | 0.583 | 0.571 | 0.476 | 0.281 | 0.268 | 0.134 | 0.198
LOU-NH91 | 0.497 | 0.492 | 0.401 | 0.439 | 0.341 | 0.642 | 0.733 | 0.623 | 0.345 | 0.604 | 0.802 | 0.726 | 0.793 | 0.729 | 0.85 | 0.961 | 0.847 | 0.715 | 0.549 | 0.412
LU99A | 0.332 | 0.347 | 0.293 | 0.25 | 0.194 | 0.899 | 0.838 | 0.926 | 0.895 | 0.779 | 0.581 | 0.532 | 0.546 | 0.54 | 0.352 | 0.494 | 0.481 | 0.434 | 0.199 | 0.173
LXF-289 | 0.659 | 0.472 | 0.298 | 0.111 | 0.076 | 0.945 | 0.932 | 0.99 | 1.05 | 0.99 | 0.672 | 0.73 | 0.731 | 0.642 | 0.731 | 1 | 0.974 | 0.831 | 0.202 | 0.131
NCI-H23 | 0.335 | 0.26 | 0.376 | 0.28 | 0.181 | 0.968 | 0.92 | 0.848 | 0.766 | 0.787 | 0.358 | 0.432 | 0.438 | 0.371 | 0.353 | 0.483 | 0.38 | 0.505 | 0.315 | 0.213
NCI-H322M | 0.433 | 0.408 | 0.37 | 0.245 | 0.171 | 1.22 | 1.31 | 1.24 | 1.26 | 1.09 | 0.396 | 0.51 | 0.446 | – | 0.565 | 1.04 | 0.703 | 0.708 | 0.319 | 0.196
NCI-H441 | 0.555 | 0.437 | 0.381 | 0.211 | 0.145 | 0.591 | 0.61 | 0.673 | 0.572 | 0.745 | 0.569 | 0.452 | 0.459 | 0.535 | 0.538 | 0.566 | 0.523 | 0.491 | 0.311 | 0.176
NCI-H460 | 0.195 | 0.102 | 0.208 | 0.189 | 0.104 | 1.17 | 1.08 | 1.11 | 1.25 | 1.09 | 0.288 | 0.13 | 0.209 | 0.195 | 0.167 | 0.315 | 0.229 | 0.157 | 0.0338 | 0.0131
NCI-H520 | 0.278 | 0.265 | 0.213 | 0.148 | 0.157 | 1.04 | 1.23 | – | 1.03 | 1.01 | 0.7 | 0.7 | 0.723 | 0.563 | 0.396 | 0.719 | 0.598 | 0.453 | 0.249 | 0.19
NCI-H596 | 0.349 | 0.348 | 0.312 | 0.475 | 0.118 | 0.98 | 0.784 | 0.85 | 0.972 | 0.927 | 0.826 | 0.857 | 0.965 | 0.954 | 0.798 | 0.854 | 0.828 | 0.784 | 0.449 | 0.328
NCI-H647 | 0.258 | 0.308 | 0.182 | 0.11 | 0.122 | 1.03 | 1.3 | – | 0.479 | 0.716 | 0.621 | 0.4 | 0.587 | 0.431 | 0.305 | 1.02 | 0.46 | 0.627 | 0.319 | 0.192
NCI-H727 | 0.33 | 0.267 | 0.258 | 0.209 | 0.176 | 0.611 | 0.447 | 0.482 | 0.53 | 0.552 | 0.401 | 0.431 | 0.37 | 0.382 | 0.38 | 0.233 | 0.249 | 0.262 | 0.13 | 0.152
NCI-H838 | 0.444 | 0.297 | 0.276 | 0.218 | 0.189 | 1.12 | 1.42 | 1.17 | 1.14 | 1.17 | 0.552 | 0.569 | 0.576 | 0.557 | 0.552 | 0.832 | 0.628 | 0.573 | 0.243 | 0.221
NCI-H1355 | 0.452 | 0.233 | 0.397 | 0.297 | 0.282 | 0.93 | 0.988 | 0.981 | 0.715 | 0.802 | 0.544 | 0.428 | 0.457 | 0.42 | 0.428 | 0.686 | 0.597 | 0.667 | 0.428 | 0.369
NCI-H1395 | 0.713 | 0.593 | 0.552 | 0.337 | 0.376 | 1.28 | 1.16 | 1.01 | 0.307 | 1.22 | 1.05 | 1.01 | 1.06 | 0.966 | 1.04 | 1.24 | 1.05 | 0.887 | 0.451 | 0.343
NCI-H1437 | 0.543 | 0.408 | 0.37 | 0.31 | 0.222 | 1.11 | 1.17 | – | 1.07 | 1.06 | 0.598 | 0.49 | 0.482 | 0.498 | 0.417 | 1.02 | 1.03 | 1.09 | 0.859 | 0.377
NCI-H1651 | 0.716 | 0.499 | 0.46 | 0.423 | 0.419 | 1.09 | 0.969 | 1.13 | 0.921 | 1.06 | 0.909 | 0.843 | 0.789 | 0.869 | 0.834 | 0.894 | 0.746 | 0.551 | 0.474 | 0.498
NCI-H1666 | 0.546 | 0.442 | 0.522 | 0.295 | 0.316 | 0.879 | 1.03 | 1.03 | 0.978 | 1 | 0.745 | 0.937 | 0.89 | 0.799 | 0.987 | 0.806 | 0.595 | 0.788 | 0.464 | 0.288
NCI-H1734 | 0.367 | 0.362 | 0.355 | 0.307 | 0.229 | 0.778 | 0.954 | 0.822 | 0.634 | 0.665 | 0.783 | 0.653 | 0.753 | 0.662 | 0.627 | 0.678 | 0.693 | 0.64 | 0.394 | 0.331
NCI-H1755 | 0.317 | 0.21 | 0.191 | 0.182 | 0.139 | 0.976 | 1.03 | 0.976 | 0.884 | 0.759 | 0.821 | 0.714 | 0.722 | 0.754 | 0.697 | 0.795 | 0.743 | 0.642 | 0.391 | 0.171
NCI-H1792 | 0.317 | 0.222 | 0.234 | 0.128 | 0.0699 | 0.351 | 0.438 | 0.725 | 0.654 | 0.327 | 0.549 | 0.454 | 0.475 | 0.509 | 0.507 | 0.491 | 0.355 | 0.377 | 0.219 | 0.0845
NCI-H1793 | 0.316 | 0.395 | 0.29 | 0.311 | 0.31 | 0.268 | 0.505 | 0.463 | 0.363 | 0.463 | 0.524 | 0.442 | 0.407 | 0.432 | 0.444 | 0.524 | 0.644 | 0.553 | 0.506 | 0.472
NCI-H1915 | 0.936 | 0.84 | 0.763 | 0.463 | 0.231 | 0.771 | 0.823 | 0.733 | 0.764 | 0.705 | 0.392 | 0.289 | 0.318 | 0.284 | 0.35 | 1.11 | 1.03 | 0.921 | 0.488 | 0.288

From the supplement of paper PMC10307832
